{
  "source": "patent US8889680B2",
  "about": "“Treatment or prevention of fungal infections with PDK1 inhibitors” (priority 2010, dated 2014)",
  "key": {"[1]": {"tested_on": "C. albicans clinical reference strain SC5314", "assay": "Adenylate kinase (AK) release assay of yeast cell lysis", "type": "cell-based, Candida albicans", "design": "dose or concentration left out as unconfirmed", "conditions": "extracellular AK activity relative to DMSO-treated cells", "method": "AK assays were performed according to a recently published protocol (Didone et al., Nat. Protocol. 5:1107-14 (2010)) using the 96-well plate version using the Toxi-Light Assay kit (Lonza; Basel, Switzerland). Luminescence was measured using a SpectraMax plate reader (Molecular Devices; Sunnyvale, Calif.). […] To identify PKIs that disrupt yeast cell wall integrity, a four-part screening strategy as outlined in FIG. 1A was designed. The primary screen in the approach detects molecules that cause yeast cells to lyse, a characteristic phenotype of yeast cell wall damage, by use of an assay that detects the release of adenylate kinase (AK) to the growth medium as a reporter of yeast cell lysis. […] Last, to select PKIs specific for the CWI signaling pathway, the set of hits were tested for their ability to block the activation of a transcriptional reporter of the CWI-signaling pathway. To rapidly survey a sample of well-characterized PKIs, the commercially available InhibitorSelect collection, a library of 80 PKIs with diverse mechanistic and structural characteristics, was utilized. C. albicans clinical reference strain SC5314 was screened against the InhibitorSelect library for molecules that caused a release of AK into the growth medium."}, "[2]": {"tested_on": "C. albicans", "assay": "Antifungal susceptibility (microdilution MIC), C. albicans", "type": "cell-based, Candida albicans", "method": "(§1) The antifungal activity of protein kinase inhibitors was determined using the Clinical and Laboratory Science Institute microdilution protocol M-27A2. Biofilm antifungal activity was determined using the protocol of Pierce et al. and is reported as MIC50S (Pierce et al., Nat. Protoc. 3:1494-1500 (2008)). Disk diffusion assays were performed as described previously (Roelants et al., Microbiology 150:3289-304 (2004)).\nTo identify PKIs that disrupt yeast cell wall integrity, a four-part screening strategy as outlined in FIG. 1A was designed. The primary screen in the approach detects molecules that cause yeast cells to lyse, a characteristic phenotype of yeast cell wall damage, by use of an assay that detects the release of adenylate kinase (AK) to the growth medium as a reporter of yeast cell lysis. Previously it was shown that the AK assay in HTS format can detect as few as 500 lysed yeast cells in a sample of 10^5 cells (Didone et al., Nat. Protocol. 5:1107-14 (2010)). PKIs that cause yeast cells lysis (hits) were then re-confirmed by AK dose-response assays and tested for in vitro antifungal activity against the human fungal pathogen C. albicans using standard microdilution susceptibility testing. Last, to select PKIs specific for the CWI signaling pathway, the set of hits were tested for their ability to block the activation of a transcriptional reporter of the CWI-signaling pathway. […]"}, "[3]": {"tested_on": "C. neoformans", "assay": "Antifungal susceptibility (microdilution MIC), C. neoformans", "type": "cell-based, Cryptococcus neoformans", "method": "as §1\n(FIG. 3A). […] Since the echinocandin class of cell wall-targeted 1,3-β-glucan synthase inhibitors is not active against C. neoformans, this represents one of the few cell wall-targeted molecules with activity against this important pathogen."}, "[4]": {"tested_on": "C. albicans biofilms", "assay": "Biofilm XTT reduction assay of metabolic activity", "type": "cell-based, Candida albicans", "conditions": "at higher concentrations than those active against planktonic cells", "method": "Filled circles indicate growth and clear circles indicate no detectable turbidity. The lowest concentration of drug resulting in no growth is defined as the MIC. […] Metabolic activity was determined using the XTT assay.\nSC5314 biofilms were generated in microtiter plates for 48 hours and treated with OSU-03012 for 24 hours before being subject to an XTT reduction assay of metabolic activity.\nas §1"}, "[5]": {"tested_on": "C. neoformans H99", "assay": "Time-kill evaluation in combination with fluconazole", "type": "cell-based, Cryptococcus neoformans", "conditions": "C. neoformans H99, YPD, 37° C., 30 hours", "method": "(§2) YPD cultures were incubated at 37° C. for 30 hours in the presence of the indicated drugs and combinations. Aliquots were diluted and plated on YPD at 30° C. to determine inoculum. […] BALB/c mice (n=5 per group) were treated with 100 mg/kg OSU-03012 per day by oral gavage after inoculation with C. albicans SC5314 by tail vein injection for 2 days and kidney fungal burden was determined.\nTo determine if the combination of OSU-03012 and fluconazole was fungicidal, overnight cultures of C. neoformas strain H99 were diluted to 1.5×10^4 cells/ml in yeast peptone dextrose containing either: dimethyl sulfoxide (DMSO) (1% final concentration); fluconazole (2 μg/ml/1% DMSO); OSU-03012 (2 μg/ml/1% DMSO); or OSU-03012 and fluconazole (2 μg/ml each/1% DMSO). The cultures were incubated at 37° C. for 30 hours. Aliquots were removed at 0, 3, 6, 24, and 30 hours; diluted and plated on yeast peptone dextrose plates. The plates were incubated at 30° C. for 48 hours and colony forming units per ml determined by standard methods. It was determined that the combination of OSU-03012 and fluconazole was fungicidal (FIG. 9A)."}, "[6]": {"tested_on": "C. albicans strain SC5314", "assay": "Mouse model of candidiasis, kidney fungal burden", "type": "in vivo", "conditions": "BALB/c mice, 100 mg/kg per day by oral gavage in peanut oil, 2 days, C. albicans SC5314 i.v.", "method": "as §2\nOn the day of inoculation (DO), BALB/c mice were restrained in a mechanical restrainer and inoculated with C. albicans strain SC5314 suspended in saline (1×10^5 cfu/animal) via lateral tail vein injection. OSU-03012 (100 mg/kg) in peanut oil was given by gavage to half the animals (n=5) and peanut oil alone was given to the other half of animals on the day of inoculation and on the following day. ON D2, the animals were sacrificed and the kidneys harvested. The kidneys were homogenized and dilutions were plated on yeast peptone dextrose plates containing gentamicin and vancomycin. The plates were incubated at 30° C. for one day and colony forming units per kidney were determined by standard methods. Differences between treatment and no treatment groups were analyzed by Student's t test with a statistically significant effect defined as P<0.05."}, "[7]": {"tested_on": "human cells", "conditions": "cited from earlier work"}, "[8]": {"tested_on": "CWI pathway reporter Rlm1-lacZ", "assay": "β-Galactosidase CWI pathway reporter assay (Rlm1-lacZ)", "type": "cell-based", "conditions": "sub-inhibitory concentrations (1/2 MIC), S. cerevisiae", "method": "Bars indicate mean fold change in Miller units of β-galactosidase activity relative to logarithmic phase cells without calcofluor or PKI. Error bars indicate standard deviation of three independent trials performed in triplicate. […] The percentage of cells with PI uptake was determined by fluorescence.\nLogarithmic phase S. cerevisiae (BY4741) cells harboring the pRLM1-lacZ plasmid were transferred to a 96-well plate, and treated with Calcofluor white ([…])+/−protein kinase inhibitor at sub-inhibitory concentrations (1/2MIC). The cells were incubated at room temperature for 5 hours and processed for β-galactosidase activity using the ThermoScientific Yeast β-galactosidase kit according to the manufacturer's instructions (Pierce; Rockford, Ill.). β-galactosidase activity was determined by measuring OD420 using a SpectraMax Plate reader (Molecular Devices) and expressed as fold change in Miller units (nmole/mg/min) relative to untreated cells. Each experiment was performed in duplicate with three independent isolates.\nThe novel, antifungal PKIs identified in the primary screen were evaluated for their ability to block CWI pathway signaling using a reporter construct that contains two copies of the consensus binding site for the CWI-pathway-regulated transcription factor Rlm1 fused to the β-galactosidase gene (Jung et al., Mol. Microbiol. 46:781-9 (2002)). […]"}, "[9]": {"tested_on": "C. albicans", "assay": "Checkerboard interaction assay (FIC)", "type": "cell-based, Candida albicans", "method": "This assay allows one to compare the activity of a molecule alone and in combination with another molecule by generating a fractional inhibitory concentration (FIC). FIC for two drugs (A & B) is calculated as follows: […]. FIC values less than 0.5 are considered synergistic; between 0.5 and 1 are additive; between 1-2 are indifferent; and above 2 are antagonistic. […] Therefore, KP-372-1 is not synergistic with either agent."}, "[10]": {"conditions": "Candida albicans, C. albicans growth assay, Table 1, read-out: MIC"}, "[11]": {"conditions": "C. albicans growth assay, Table 1"}},
  "note": "Like-named read-outs stand apart in the source and are kept apart here.",
  "data": [
    {"compound": "CN[C@@H]1C[C@H]2O[C@@](C)([C@@H]1OC)n1c3ccccc3c3c4c(c5c6ccccc6n2c5c31)C(=O)NC4", "note": "[Staurosporine]", "values": [
      {"measurement": "Fold increase in AK release", "setting": "[1]", "result": 48, "unit": "Fold"},
      {"measurement": "MIC", "setting": "[2]; [10]", "result": 0.5, "unit": "µg/mL"}
    ]},
    {"compound": "O=C(Nc1cccc(Nc2ncc(Br)c(NCCc3cnc[nH]3)n2)c1)N1CCCC1", "note": "[BX-912]", "values": [
      {"measurement": "MIC (growth inhibition)", "setting": "[3]", "result": "≥ 64", "unit": "µg/mL"},
      {"measurement": "MIC (growth inhibition)", "setting": "[2]; C. albicans, planktonic", "result": "≥ 64", "unit": "µg/mL"}
    ]},
    {"compound": "CO[C@H]1C[C@@H]2CC[C@@H](C)[C@@](O)(O2)C(=O)C(=O)N2CCCC[C@H]2C(=O)O[C@H]([C@H](C)C[C@@H]2CC[C@@H](O)[C@H](OC)C2)CC(=O)[C@H](C)/C=C(\\C)[C@@H](O)[C@@H](OC)C(=O)[C@H](C)C[C@H](C)/C=C/C=C/C=C/1C", "note": "[Rapamycin]", "values": [
      {"measurement": "Fold increase in AK release", "setting": "[1]", "result": 17, "unit": "Fold"},
      {"measurement": "MIC", "setting": "[2]; [10]", "result": 100, "unit": "µg/mL"}
    ]},
    {"compound": "NCC(=O)Nc1ccc(-n2nc(C(F)(F)F)cc2-c2ccc3c(ccc4ccccc43)c2)cc1", "note": "[OSU-03012]", "values": [
      {"measurement": "activity against C. albicans biofilms (in words)", "setting": "[4]", "result": "showed activity"},
      {"measurement": "antifungal activity (in words)", "setting": "[3]", "result": "good antifungal activity"},
      {"measurement": "MIC", "setting": "[3]; Cryptococcus neoformans, FIG. 7 legend", "result": 4, "unit": "µg/mL"},
      {"measurement": "interaction with fluconazole", "setting": "[5]", "result": "synergistic"},
      {"measurement": "time-kill result of the combination", "setting": "[5]; OSU-03012 and fluconazole 2 μg/ml each", "result": "fungicidal"},
      {"measurement": "in vivo activity (kidney fungal burden)", "setting": "[6]", "result": "in vivo activity against C. albicans infection"},
      {"measurement": "antifungal activity (in words)", "setting": "[2]; C. albicans", "result": "good antifungal activity"},
      {"measurement": "MIC", "setting": "[2]; Candida albicans, C. albicans, FIG. 7 legend, read-out: MIC", "result": 3, "unit": "µg/mL"},
      {"measurement": "concentration tolerated in human cells", "setting": "[7]", "result": 8000, "unit": "ng/mL"}
    ]},
    {"compound": "COc1ccc2c(c[n+](C)c3c4cc5c(cc4ccc23)OCO5)c1OC", "note": "[Chelerythine]", "values": [
      {"measurement": "Fold increase in AK release", "setting": "[1]", "result": 5, "unit": "Fold"},
      {"measurement": "MIC", "setting": "[2]; [11]", "result": 125, "unit": "µg/mL"}
    ]},
    {"compound": "NCCNc1ncc(C(N)=O)c(Nc2cccc(C(F)(F)F)c2)n1", "note": "[Sykll]", "values": [
      {"measurement": "Fold increase in AK release", "setting": "[1]", "result": 14, "unit": "Fold"},
      {"measurement": "Rlm1-lacZ reporter activity induced by Calcofluor white", "setting": "[8]", "result": "completely abolished reporter activity"},
      {"measurement": "MIC", "setting": "[2]; [11]", "result": 9, "unit": "µg/mL"}
    ]},
    {"compound": "CN[C@@H]1C[C@H]2O[C@@](C)([C@@H]1OC)n1c3ccccc3c3c4c(c5c6ccccc6n2c5c31)C(=O)N[C@@H]4O", "note": "[UCN-01]", "values": [
      {"measurement": "FIC (fractional inhibitory concentration)", "setting": "[9]; combination with caspofungin", "result": 1.0},
      {"measurement": "FIC (fractional inhibitory concentration)", "setting": "[9]; combination with fluconazole", "result": 0.3},
      {"measurement": "activity against C. albicans biofilms (in words)", "setting": "[4]", "result": "showed activity"},
      {"measurement": "antifungal activity (in words)", "setting": "[3]", "result": "good antifungal activity"},
      {"measurement": "antifungal activity (in words)", "setting": "[2]; C. albicans", "result": "good antifungal activity"}
    ]},
    {"compound": "CC[n+]1c(/C=C/N(C)c2ccccc2)n(-c2ccccc2)c2ccc(-c3nc4ccccc4s3)cc21.[I-]", "note": "[Akt IV]", "values": [
      {"measurement": "Fold increase in AK release", "setting": "[1]", "result": 12, "unit": "Fold"},
      {"measurement": "MIC", "setting": "[2]; [11]", "result": 9, "unit": "µg/mL"}
    ]},
    {"compound": "Herbymicin", "values": [
      {"measurement": "Fold increase in AK release", "setting": "[1]", "result": 127, "unit": "Fold"},
      {"measurement": "MIC", "setting": "[2]; [11]", "result": 40, "unit": "µg/mL"}
    ]}
  ]
}
